Results reported in patent publication US20260297085A1, “1 H-PYRROLO[2,3-B]PYRIDIN-4-YL]-2-OXOPYRROLIDINE-3-CARBONITRILE DERIVATIVES AS TYROSINE KINASE 2 (TYK2) INHIBITORS FOR THE TREATMENT OF INFLAMMATORY DISEASES” (BIOGEN MA INC., priority 2023, published 2026).
Structures can show the parent of a compound that is named as a salt.

Legend:
Conditions in all cases: JH1 kinase domain, ADP-Glo
[1] = biological target: T1, human TYK2 kinase domain (JH1) (Homo sapiens, UniProt P29597); test: JH1 biochemical assay for TYK2 (ADP-Glo kinase assay, recombinant JH1 catalytic domain, JAK3-974 peptide, 10 μM ATP)
T1 construct: recombinantly generated catalytic kinase (also known as JH1) domain of human JAK1, JAK2, JAK3 and TYK2
T1 sequence (P29597 897-1176 limits assumed): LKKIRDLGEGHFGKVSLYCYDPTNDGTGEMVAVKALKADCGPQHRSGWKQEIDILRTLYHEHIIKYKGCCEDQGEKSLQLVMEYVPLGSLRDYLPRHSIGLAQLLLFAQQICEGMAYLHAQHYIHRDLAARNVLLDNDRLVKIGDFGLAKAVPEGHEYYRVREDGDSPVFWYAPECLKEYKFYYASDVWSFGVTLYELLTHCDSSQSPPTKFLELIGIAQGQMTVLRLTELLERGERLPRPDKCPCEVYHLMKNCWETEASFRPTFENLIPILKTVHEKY
Method: (§1) Compounds of the disclosure were assessed for their ability to inhibit TYK2, JAK1, JAK2, and JAK3 activity. The inhibitory properties of the compounds of the disclosure described herein can be evidenced by testing in any one of the following protocols.
(§2) The kinase activity of recombinantly generated catalytic kinase (also known as JH1) domain of human JAK1, JAK2, JAK3 and TYK2 were evaluated in a plate-based assay using the ADP-Glo™ Kinase Assay platform. Specifically, 4 nM of recombinant JAK1 kinase domain is used to phosphorylate 50 μM of a JAK3-342 (sequence ALVDGYFRLTT) peptide in the presence of 35 μM ATP. Catalytic activities of recombinant JAK2, JAK3 and TYK2 kinase domain (0.2, 0.3 and 2 nM, respectively) are evaluated by the phosphorylation status of the JAK3-974 (50 μM; sequence LPLDKDYYVVR) peptide with the addition of ATP (15, 4 and 10 μM, respectively). The reactions proceed for 100 minutes and the catalytic activity is quantified by first depleting the unused ATP, converting the hydrolyzed ADP into ATP to generate luminescence in a luciferase reaction; which is the basis of the ADP-Glo platform. Compounds are tested at either 10 μM or 1 μM top concentration, 11 points of 3-fold dilution. The data is normalized and the percent activity versus log concentration of compound is fitted with a 4-parameter logistic model to generate a curve and an IC50 value.

[2] = biological target: T2, human JAK1 kinase domain (JH1) (Homo sapiens, UniProt P23458); test: JH1 biochemical assay for JAK1 (ADP-Glo kinase assay, recombinant JH1 catalytic domain, JAK3-342 peptide, 35 μM ATP)
T2 construct: recombinantly generated catalytic kinase (also known as JH1) domain of human JAK1, JAK2, JAK3 and TYK2
Method: as §1, §2

[3] = biological target: T3, human JAK2 kinase domain (JH1) (Homo sapiens, UniProt O60674); test: JH1 biochemical assay for JAK2 (ADP-Glo kinase assay, recombinant JH1 catalytic domain, JAK3-974 peptide, 15 μM ATP)
T3 construct: recombinantly generated catalytic kinase (also known as JH1) domain of human JAK1, JAK2, JAK3 and TYK2
Method: as §1, §2

[4] = biological target: T4, human JAK3 kinase domain (JH1) (Homo sapiens, UniProt P52333); test: JH1 biochemical assay for JAK3 (ADP-Glo kinase assay, recombinant JH1 catalytic domain, JAK3-974 peptide, 4 μM ATP)
T4 construct: recombinantly generated catalytic kinase (also known as JH1) domain of human JAK1, JAK2, JAK3 and TYK2
Method: as §1, §2

T4 sequence (P52333 822-1111 limits assumed): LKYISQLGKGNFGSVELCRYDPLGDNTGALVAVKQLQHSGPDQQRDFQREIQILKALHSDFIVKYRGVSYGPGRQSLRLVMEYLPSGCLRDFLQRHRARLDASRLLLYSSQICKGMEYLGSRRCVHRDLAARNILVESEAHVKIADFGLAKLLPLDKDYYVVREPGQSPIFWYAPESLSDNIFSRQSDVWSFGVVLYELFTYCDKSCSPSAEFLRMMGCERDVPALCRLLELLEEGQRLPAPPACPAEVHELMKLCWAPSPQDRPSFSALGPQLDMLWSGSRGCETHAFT
T2 sequence (P23458 875-1153 limits assumed): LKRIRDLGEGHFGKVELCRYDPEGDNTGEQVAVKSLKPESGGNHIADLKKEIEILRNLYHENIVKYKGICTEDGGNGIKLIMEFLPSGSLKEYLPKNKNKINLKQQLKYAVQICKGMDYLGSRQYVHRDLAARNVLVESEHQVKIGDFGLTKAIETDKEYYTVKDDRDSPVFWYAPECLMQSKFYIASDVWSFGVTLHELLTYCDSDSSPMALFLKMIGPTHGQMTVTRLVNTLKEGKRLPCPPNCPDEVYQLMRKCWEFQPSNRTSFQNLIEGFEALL
T3 sequence (O60674 849-1124 limits assumed): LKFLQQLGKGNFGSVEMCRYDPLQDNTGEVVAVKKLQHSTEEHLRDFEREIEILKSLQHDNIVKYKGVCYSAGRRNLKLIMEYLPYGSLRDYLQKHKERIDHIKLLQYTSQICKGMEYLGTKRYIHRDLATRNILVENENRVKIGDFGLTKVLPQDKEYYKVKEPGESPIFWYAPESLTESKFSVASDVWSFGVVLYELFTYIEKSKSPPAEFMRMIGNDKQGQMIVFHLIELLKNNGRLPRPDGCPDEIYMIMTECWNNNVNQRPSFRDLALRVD

Row | IC50 [1] [µM] | IC50 [2] [µM] | IC50 [3] [µM] | IC50 [4] [µM] | SMILES
1 | 0.05 to 0.1 | 1 to 5 | 1 to 5 | 1 to 5 | C[C@@H]1CN(c2ccnn3cc(-c4cccnc4OC(F)F)cc23)C(=O)[C@]1(C#N)C1CC1 [Example 50, (3R,4S)-3-cyclopropyl-1-(6-(2-(difluoromethoxy)pyridin-3-y1)pyrrolo[1,2-b]pyridazin-4-yl)-4-methyl-2-oxopyrrolidine-3-carbonitrile]
2 | 0.05 to 0.1 | 0.1 to 1 | 1 to 5 | 1 to 5 | COc1ncc(-c2cc3c(N4C[C@@H](C)[C@@](C#N)(C5CC5)C4=O)ccnn3c2)cn1 [Example 76, (3R,4S)-3-cyclopropyl-1-(6-(2-methoxypyrimidin-5-yl)pyrrolo[1,2-b]pyridazin-4-yl)-4-methyl-2-oxopyrrolidine-3-carbonitrile]
3 | > 0.1 | > 10 | > 10 | > 10 | C[C@@H]1CN(c2ccnn3cc(-c4cccc5cnn(C)c45)cc23)C(=O)[C@]1(C#N)C1CC1 [Example 78, (3R,4S)-3-cyclopropyl-4-methyl-1-(6-(1-methyl-1H-indazol-7-yl)pyrrolo[1,2-b]pyridazin-4-yl)-2-oxopyrrolidine-3-carbonitrile]
4 | 0.05 to 0.1 | 1 to 5 | 1 to 5 | 1 to 5 | Cc1ncc(-c2cc3c(N4C[C@@H](C)[C@@](C#N)(C5CC5)C4=O)ccnn3c2)cn1 [Example 80, (3R,4S)-3-cyclopropyl-4-methyl-1-(6-(2-methylpyrimidin-5-yl)pyrrolo[1,2-b]pyridazin-4-yl)-2-oxopyrrolidine-3-carbonitrile]
5 | 0.02 to 0.05 | > 10 | > 10 | > 10 | COc1cncc(-c2cc3c(N4C[C@@H](C)[C@@](C#N)(C5CC5)C4=O)ccnn3c2)c1 [Example 82, (3R,4S)-3-cyclopropyl-1-(6-(5-methoxypyridin-3-yl)pyrrolo[1,2-b]pyridazin-4-yl)-4-methyl-2-oxopyrrolidine-3-carbonitrile]
6 | 0.02 to 0.05 | 1 to 5 | 1 to 5 | 1 to 5 | COc1ncc(-c2cc3c(N4C[C@@H](C)[C@@](C#N)(C5CC5)C4=O)ccnn3c2)cc1C#N [Example 85, 5-(4-((3R,4S)-3-cyano-3-cyclopropyl-4-methyl-2-oxopyrrolidin-1-yl)pyrrolo[1,2-b]pyridazin-6-yl)-2-methoxynicotinonitrile]
7 | 0.02 to 0.05 | 5 to 10 | > 10 | > 10 | C[C@@H]1CN(c2ccnn3cc(-c4cncc(Cl)c4)cc23)C(=O)[C@]1(C#N)C1CC1 [Example 87, (3R,4S)-1-(6-(5-chloropyridin-3-yl)pyrrolo[1,2-b]pyridazin-4-yl)-3-cyclopropyl-4-methyl-2-oxopyrrolidine-3-carbonitrile]
8 | 0.02 to 0.05 | 1 to 5 | 1 to 5 | 1 to 5 | C[C@@H]1CN(c2ccnn3cc(-c4cncn4C)cc23)C(=O)[C@]1(C#N)C1CC1 [Example 89, (3R,4S)-3-cyclopropyl-4-methyl-1-(6-(1-methyl-1H-imidazol-5-yl)pyrrolo[1,2-b]pyridazin-4-yl)-2-oxopyrrolidine-3-carbonitrile]
9 | 0.02 to 0.05 | 1 to 5 | > 10 | > 10 | COc1cc(-c2cc3c(N4C[C@@H](C)[C@@](C#N)(C5CC5)C4=O)ccnn3c2)c(F)cn1 [Example 94, (3R,4S)-3-cyclopropyl-1-(6-(5-fluoro-2-methoxypyridin-4-yl)pyrrolo[1,2-b]pyridazin-4-yl)-4-methyl-2-oxopyrrolidine-3-carbonitrile]
10 | 0.05 to 0.1 | 1 to 5 | 1 to 5 | 5 to 10 | COc1cc(-c2cc3c(N4C[C@@H](C)[C@@](C#N)(C5CC5)C4=O)ccnn3c2)c(OC)nn1 [Example 98, (3R,4S)-3-cyclopropyl-1-(6-(3,6-dimethoxypyridazin-4-yl)pyrrolo[1,2-b]pyridazin-4-yl)-4-methyl-2-oxopyrrolidine-3-carbonitrile]

More lines, now with the values behind:

Row | SMILES | IC50 [1] [µM] | IC50 [2] [µM] | IC50 [3] [µM] | IC50 [4] [µM]
11 | C[C@@H]1CN(c2ccnn3cc(-c4cncc(C(F)(F)F)c4)cc23)C(=O)[C@]1(C#N)C1CC1 [Example 70, (3R,4S)-3-cyclopropyl-4-methyl-2-oxo-1-(6-(5-(trifluoromethyl)pyridin-3-yl)pyrrolo[1,2-b]pyridazin-4-yl)pyrrolidine-3-carbonitrile] | 0.05 to 0.1 | 1 to 5 | 1 to 5 | 1 to 5
12 | C[C@@H]1CN(c2ccnn3cc(-c4cnc(N(C)C)nc4)cc23)C(=O)[C@]1(C#N)C1CC1 [Example 91, (3R,4S)-3-cyclopropyl-1-(6-(2-(dimethylamino)pyrimidin-5-yl)pyrrolo[1,2-b]pyridazin-4-yl)-4-methyl-2-oxopyrrolidine-3-carbonitrile] | 0.02 to 0.05 | 0.1 to 1 | 1 to 5 | 1 to 5
13 | C[C@@H]1CN(c2ccnn3cc(-c4cncnc4)cc23)C(=O)[C@]1(C#N)C1CC1 [Example 92, (3R,4S)-3-cyclopropyl-4-methyl-2-oxo-1-(6-(pyrimidin-5-yl)pyrrolo[1,2-b]pyridazin-4-yl)pyrrolidine-3-carbonitrile] | 0.05 to 0.1 | 1 to 5 | 5 to 10 | 1 to 5
14 | C[C@@H]1CN(c2ccnn3cc(-c4ccc(N(C)C(=O)OC(C)(C)C)nc4)cc23)C(=O)[C@]1(C#N)C1CC1 [Example 95, tert-butyl (5-(4-((3R,4S)-3-cyano-3-cyclopropyl-4-methyl-2-oxopyrrolidin-1-yl)pyrrolo[1,2-b]pyridazin-6-yl)pyridin-2-yl)(methyl)carbamate] | 0.005 to 0.02 | 0.1 to 1 | 0.1 to 1 | 0.1 to 1
15 | C[C@@H]1CN(c2ccnn3cc(-c4cnn(C)n4)cc23)C(=O)[C@]1(C#N)C1CC1 [Example 99, (3R,4S)-3-cyclopropyl-4-methyl-1-(6-(2-methyl-2H-1,2,3-triazol-4-yl)pyrrolo[1,2-b]pyridazin-4-yl)-2-oxopyrrolidine-3-carbonitrile trifluoroacetate] | 0.02 to 0.05 | 0.1 to 1 | 1 to 5 | 0.1 to 1
16 | C[C@@H]1CN(c2ccnn3cc(-c4cnc5n4CCCC5)cc23)C(=O)[C@]1(C#N)C1CC1 [Example 100, (3R,4S)-3-cyclopropyl-4-methyl-2-oxo-1-(6-(5,6,7,8-tetrahydroimidazo[1,2-a]pyridin-3-yl)pyrrolo[1,2-b]pyridazin-4-yl)pyrrolidine-3-carbonitrile trifluoroacetate] | 0.05 to 0.1 | 1 to 5 | 1 to 5 | 1 to 5
17 | C[C@@H]1CN(c2ccnn3cc(-c4nnc5n4CCCC5)cc23)C(=O)[C@]1(C#N)C1CC1 [Example 105, (3R,4S)-3-cyclopropyl-4-methyl-2-oxo-1-(6-(5,6,7,8-tetrahydro-[1,2,4]triazolo[4,3-a]pyridin-3-yl)pyrrolo[1,2-b]pyridazin-4-yl)pyrrolidine-3-carbonitrile trifluoroacetate] | > 0.1 | > 10 | 1 to 5 | 5 to 10
18 | C[C@@H]1CN(c2ccnn3cc(-c4cc(C(F)(F)F)nn4C)cc23)C(=O)[C@]1(C#N)C1CC1 [Example 107, (3R,4S)-3-cyclopropyl-4-methyl-1-(6-(1-methyl-3-(trifluoromethyl)-1H-pyrazol-5-yl)pyrrolo[1,2-b]pyridazin-4-yl)-2-oxopyrrolidine-3-carbonitrile trifluoroacetate] | 0.02 to 0.05 | 1 to 5 | 1 to 5 | 1 to 5
19 | C[C@@H]1CN(c2ccnn3cc(-c4nc5ccccn5n4)cc23)C(=O)[C@]1(C#N)C1CC1 [Example 108, (3R,4S)-1-(6-([1,2,4]triazolo[1,5-a]pyridin-2-yl)pyrrolo[1,2-b]pyridazin-4-yl)-3-cyclopropyl-4-methyl-2-oxopyrrolidine-3-carbonitrile trifluoroacetate] | 0.05 to 0.1 | 1 to 5 | > 10 | 1 to 5
20 | Cc1ccc2nc(-c3cc4c(N5C[C@@H](C)[C@@](C#N)(C6CC6)C5=O)ccnn4c3)nn2c1 [Example 109, (3R,4S)-3-cyclopropyl-4-methyl-1-(6-(6-methyl-[1,2,4]triazolo[1,5-a]pyridin-2-yl)pyrrolo[1,2-b]pyridazin-4-yl)-2-oxopyrrolidine-3-carbonitrile trifluoroacetate] | 0.05 to 0.1 | 1 to 5 | 5 to 10 | 1 to 5
